In US7563781B2, “Triazolopyrimidine derivatives” (Janssen Pharmaceutica NV, priority 2006, dated 2009) one finds inhibition data, which are given here for 16 compounds.

Molecules are shown by their SMILES. Where two headings read alike, the source gives them in different places.

For experiment [1], the target named is T1, Focal Adhesion Kinase (full-length Flag-tagged human FAK) (Homo sapiens, UniProt Q05397).
T1 construct: a purified recombinant full-length Flag-tagged human FAK protein; Flag; made in house; host or cells: baculovirus infected insect cells
As to the kind of experiment: in vitro FAK ELISA kinase assay. It counts as biochemical. Particulars: read-out: FAK % Inhib ave: 10 uM. The protocol: Compound effects on the tyrosine kinase activity of Focal Adhesion Kinase were assessed with an in vitro FAK ELISA kinase assay. This assay measures the incorporation of phosphate from ATP into a FAK substrate protein using an antibody specific for phospho-tyrosine.
500 ng of FAKsubstrate, a purified recombinant fusion protein of GST and a 73 amino acid region surrounding the Tyr397 human FAK autophosphorylation site, was coated in a high-protein binding polystyrene 96 well plate overnight in a buffer containing 50 mM Hepes, pH 7.5, 150 mM NaCl, 0.1 mM Na-oVO4, 0.1 mM NaF and 1 protease inhibitor tablet/10 mL (Complete Mini-EDTA-free, Roche). The next day this solution was removed and the wells were incubated with 0.2% BSA in 50 mM Hepes, pH 7.5, 150 mM NaCl, 0.2 mM PMSF for 1 hour at 30° C. to block unoccupied protein binding sites. The wells were then washed with 50 mM Hepes, pH 7.5, 150 mM NaCl, 0.1% Tween 20. The kinase reaction was performed with 25 ng/well of FAK enzyme (a purified recombinant full-length Flag-tagged human FAK protein made in baculovirus infected insect cells) in 0.1 mL of a buffer containing 25 mM Hepes, pH 7.5, 5 mM MgCl2, 0.5 mM MnCl2, 10 uM NaoVO4, 0.2 mM PMSF. Compounds were added from 30% DMSO stock solutions for a screening concentration of 10 uM or IC50 determinations from 50 uM in half-log dilutions. The reaction is initiated with addition of ATP to a final concentration of 2 uM and incubated at 30° C. for 1 hour. Following the kinase reaction step, the wells were washed and incubated with 50 ng of Horseradish Peroxidase conjugated anti-phosphotyrosine antibody (PT-66 HRP, Sigma) in 0.1 mL wash buffer for 1 hour at 30° C. Wells were then washed and 0.1 mL HRP substrate, Tetra-methyl Benzidine (Sigma) was added and the color reaction allowed to proceed for 2-3 minutes followed by the addition of 0.1 mL of 1N H2SO4 to stop the HRP reaction. Percent inhibition of FAK kinase activity was calculated by comparing compound containing wells to wells treated with diluent only. Background was subtracted from all wells and was defined as the activity of FAK using 500 ng/well of BSA as a substrate. IC50 values were obtained using Prism data analysis software.
(In general: ELISA stands for enzyme-linked immunosorbent assay.)

The target of experiment [2] is T2, CAK complex (human Cdk7, human Cyclin H, MAT-1) (Homo sapiens, UniProt P50613).
T2 construct: made in house; host or cells: SF-900 insect cells co-infected with Flag-Cdk7 and Bab-Cyclin H baculoviruses
Kind of experiment: in vitro time-resolved-fluorescence assay for the CAK kinase activity. It counts as biochemical. Conditions: compound 20 uM; read-out: CAK % inhib; 20 uM. An excerpt: Cyclin Dependent Kinase Activating Kinase (CAK) is a complex of proteins that phosphorylates a well-conserved threonine (Thr) residue in all mammalian cyclin dependent kinases (cdks). The CAK complex can also phosphorylate several components of the transcriptional machinery, such as the C-terminal domain (CTD) of RNA polymerase II in the TFIIH transcription complex. The CAK complex localizes to the nucleus, and is composed of three proteins: Cdk7, Cyclin H, and MAT-1. The exemplified method teaches the cloning and expression CAK subunits, particularly a human Cdk7 and a human Cyclin H. The method of the present invention exemplified herein is equally applicable to the cloning and expression of any CAK subunit, such as variants, structural or functional polymorphisms of the human Cdk7 or the human Cyclin H, or their orthologs in other animals such as rat, mouse, pig, dog and monkey.
The CAK complex was purified from co-infected SF-900 insect cells at 48 hours post infection by batch immunoaffinity purification. The infected cells were pelleted by centrifugation and lysed in 1/10 of the culture volume in a solution containing 50 mM Hepes pH 7.5, 10 mM MgCl2, 1 mM DTT, 10 mM Beta-Glycerol phosphate, 20 uM Na-oVO4, 0.2 mM PMSF and 1 μg/mL each of leupeptin, aprotinin, and pepstatin on ice. Cells were mechanically lysed by trituration through a 22-gauge needle followed by sonication or alternately by nitrogen cavitation. The lysed cells were centrifuged at 50,000×G for 1 hour at 4° C. to remove debris and the supernatant was applied to 1/10 volume of prewashed Flag-M2 immunoaffinity resin (Sigma). The CAK complex, by nature of the Flag tagged Cdk7 protein, was allowed to bind to the Flag antibody of the resin overnight at 4° C. with gentle rocking. The resin was washed 4 times with 5 resin volumes of lysis buffer and the bound proteins were eluted by competition with 0.5 mg/mL Flag peptide ([…], American Peptide Co, Inc., SEQ ID NO: 16) in a total of 2 resin volumes. To remove the Flag peptide, the eluted material was applied to PD-10 gel filtration columns (Pharmacia) under conditions recommended by the manufacturer.
Measurement of CAK kinase activity was accomplished using an antibody methodology in which a Europium labeled antibody binds preferentially to serine phosphorylated GST-CTD substrate. The long-lived europium label fluorescence allows a greater signal-to-noise ratio due to the delay in reading the emission wavelength, thereby eliminating signals from immediate fluorescence and fluorescent pharmaceutical screening compounds.
The time-resolved-fluorescence assay for the CAK kinase activity is performed as follows. In a well of a black glutathione coated 96 well micro titer plate (Pierce Chemical, No. 15360), the following reagents were added: 1) 25 ul substrate solution containing 500 ng purified GST-CTD in a buffer having 50 mM Hepes pH 7.5, 10 mM MgCl2, 1 mM DTT, 0.2 mM PMSF, 40 uM Na-oVO4, and 22 uM ATP (as a background control, the buffer, including ATP but not substrate was added); 2) 2.5 ul of screening compounds in a diluent containing 30% DMSO/25 mM Hepes pH7.5 (As a control, the diluent only was added. Typically the final concentration of compound is 1 uM); and 3) 250 ng CAK enzyme complex in enzyme buffer containing 25 ul of 50 mM Hepes pH 7.5, 10 mM MgCl2, 1 mM DTT, 0.2 mM PMSF, and 40 uM Na-oVO4. The micro titer plate was shaken for 2 minutes on a titer plate shaker and allowed to incubate at 30° C. for 20 minutes.
Subsequently, Kinase Stop Solution (75 mM EDTA, 0.2 mM PMSF, 1 mM DTT, 120 uM Na oVO4 in PBS) was added (50 ul/well). The plate was shaken for 2 minutes and incubated overnight at room temperature to allow substrate binding to the wells. The plate contents were flicked out, and the wells of the plate were washed 4 times with 350 ul of wash buffer (Delphia wash buffer, Perkin-Elmer, Inc.). The plate was tapped dry. […]

T2 sequence (P50613 with tags, fused parts or gaps): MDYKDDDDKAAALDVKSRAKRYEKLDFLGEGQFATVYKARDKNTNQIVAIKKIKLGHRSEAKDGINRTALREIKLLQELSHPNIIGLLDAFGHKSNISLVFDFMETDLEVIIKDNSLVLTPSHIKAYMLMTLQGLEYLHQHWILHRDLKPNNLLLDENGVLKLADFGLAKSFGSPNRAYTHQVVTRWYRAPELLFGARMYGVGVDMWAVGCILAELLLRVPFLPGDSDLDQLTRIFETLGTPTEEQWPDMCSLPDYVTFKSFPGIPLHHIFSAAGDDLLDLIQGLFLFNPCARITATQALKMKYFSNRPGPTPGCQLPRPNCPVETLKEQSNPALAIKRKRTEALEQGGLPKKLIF
T2 sequence (as listed by the source partner): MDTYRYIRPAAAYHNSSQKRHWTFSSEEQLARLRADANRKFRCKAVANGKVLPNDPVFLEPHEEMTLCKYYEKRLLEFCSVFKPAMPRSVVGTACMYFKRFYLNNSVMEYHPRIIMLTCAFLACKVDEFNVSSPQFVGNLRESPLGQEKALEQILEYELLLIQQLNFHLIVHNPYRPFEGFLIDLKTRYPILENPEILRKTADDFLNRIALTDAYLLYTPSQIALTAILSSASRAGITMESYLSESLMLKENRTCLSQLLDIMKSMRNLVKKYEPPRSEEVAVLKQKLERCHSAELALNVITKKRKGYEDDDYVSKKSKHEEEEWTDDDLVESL
T1 sequence (Q05397 whole entry): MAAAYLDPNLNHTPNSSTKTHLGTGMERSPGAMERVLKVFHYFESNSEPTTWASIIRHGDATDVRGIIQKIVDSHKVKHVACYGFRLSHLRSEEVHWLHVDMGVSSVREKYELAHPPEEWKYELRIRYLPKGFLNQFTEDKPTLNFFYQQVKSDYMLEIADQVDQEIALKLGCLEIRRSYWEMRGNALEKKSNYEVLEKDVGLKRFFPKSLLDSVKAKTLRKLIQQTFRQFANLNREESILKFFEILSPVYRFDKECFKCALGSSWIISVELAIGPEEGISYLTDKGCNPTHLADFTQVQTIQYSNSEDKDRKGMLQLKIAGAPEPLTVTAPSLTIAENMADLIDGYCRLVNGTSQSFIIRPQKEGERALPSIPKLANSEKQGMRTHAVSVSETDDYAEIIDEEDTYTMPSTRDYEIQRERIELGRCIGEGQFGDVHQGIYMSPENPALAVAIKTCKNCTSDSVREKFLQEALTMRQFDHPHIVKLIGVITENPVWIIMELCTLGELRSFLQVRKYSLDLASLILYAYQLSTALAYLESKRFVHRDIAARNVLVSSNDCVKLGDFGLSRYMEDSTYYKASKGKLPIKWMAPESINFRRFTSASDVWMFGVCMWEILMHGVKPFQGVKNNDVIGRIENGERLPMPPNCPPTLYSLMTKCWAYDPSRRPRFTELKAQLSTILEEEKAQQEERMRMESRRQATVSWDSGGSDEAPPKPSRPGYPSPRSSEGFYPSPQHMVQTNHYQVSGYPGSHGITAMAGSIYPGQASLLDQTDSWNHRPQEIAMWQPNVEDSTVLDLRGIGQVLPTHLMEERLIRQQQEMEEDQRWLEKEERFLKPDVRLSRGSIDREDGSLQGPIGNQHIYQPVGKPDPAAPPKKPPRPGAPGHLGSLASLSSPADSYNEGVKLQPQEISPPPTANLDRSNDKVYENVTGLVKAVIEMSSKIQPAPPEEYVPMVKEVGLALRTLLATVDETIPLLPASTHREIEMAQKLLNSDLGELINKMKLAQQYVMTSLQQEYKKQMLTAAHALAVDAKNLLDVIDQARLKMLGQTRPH

As to `CN(C)CC(O)COc1ccc(Nc2ncc3nnn(-c4ccc5c(c4)Cc4ccccc4-5)c3n2)cc1` (centres unmarked) [Compound 17, 1-Dimethylamino-3-{4-[3-(9H-fluoren-2-yl)-3H-[1,2,3]triazolo[4,5-d]pyrimidin-5-ylamino]-phenoxy}-propan-2-ol], the inhibition at 10 µM in experiment [1] (compound 10 uM, ATP 2 uM) was found to be 86.8%. Also, in experiment [2], the inhibition at 20 µM was 53.8%.

With `CN(Cc1ccccc1Nc1ncc2nnn(-c3ccc4c(c3)CCC4)c2n1)C1CCCCC1` [Compound 18, {2-[(Cyclohexyl-methyl-amino)-methyl]-phenyl}-(3-indan-5-yl-3H-[1,2,3]triazolo[4,5-d]pyrimidin-5-yl)-amine], in experiment [1] (compound 10 uM, ATP 2 uM), the inhibition at 10 µM worked out at 12.2%. Besides, the inhibition at 20 µM in experiment [2] came to 20.7%.

`CCN(CC)CCNC(=O)c1ccc(-n2nnc3cnc(Nc4ccc5c(c4)CCC5)nc32)cc1` [Compound 19, N-(2-Diethylamino-ethyl)-4-[5-(indan-5-ylamino)-[1,2,3]triazolo[4,5-d]pyrimidin-3-yl]-benzamide]: the inhibition at 10 µM in experiment [1] (compound 10 uM, ATP 2 uM) turned out to be 68.8%. The inhibition at 20 µM in experiment [2] was -63.7%.

For `CN(Cc1ccccc1-n1nnc2cnc(Nc3ccc4c(c3)CCC4)nc21)C1CCCCC1` [Compound 20, (3-{2-[(Cyclohexyl-methyl-amino)-methyl]-phenyl}-3H-[1,2,3]triazolo[4,5-d]pyrimidin-5-yl)-indan-5-yl-amine], the inhibition at 10 µM in experiment [1] (compound 10 uM, ATP 2 uM) stood at 13%. For the same compound, the inhibition at 20 µM in experiment [2] worked out at 12.5%.

Regarding `CN(Cc1ccccc1Nc1ncc2nnn(-c3ccccc3CN(C)C3CCCCC3)c2n1)C1CCCCC1` [Compound 21, {2-[(Cyclohexyl-methyl-amino)-methyl]-phenyl}-(3-{2-[(cyclohexyl-methyl-amino)-methyl]-phenyl}-3H-[1,2,3]triazolo[4,5-d]pyrimidin-5-yl)-amine], the inhibition at 10 µM in experiment [1] (compound 10 uM, ATP 2 uM) was determined as 19%. The inhibition at 20 µM in experiment [2] stood at 23.3%.

Turning to `CCN(CC)CCNC(=O)c1ccc(Nc2ncc3nnn(-c4ccc5c(c4)CCC5)c3n2)cc1` [Compound 22, N-(2-Diethylamino-ethyl)-4-(3-indan-5-yl-3H-[1,2,3]triazolo[4,5-d]pyrimidin-5-ylamino)-benzamide], the inhibition at 10 µM in experiment [1] (compound 10 uM, ATP 2 uM) was found to be 98.9%. Besides, in experiment [2], the inhibition at 20 µM amounted to 96.9%.

Consider `c1ccc(-c2cccc(Nc3ncc4nnn(-c5ccc6c(c5)CCC6)c4n3)c2)cc1` [Compound 23, Biphenyl-3-yl-(3-indan-5-yl-3H-[1,2,3]triazolo[4,5-d]pyrimidin-5-yl)-amine], for which the inhibition at 10 µM in experiment [1] (compound 10 uM, ATP 2 uM) was 13%. Besides, the inhibition at 20 µM in experiment [2] came to 43.5%.

Turning to `CCOP(=O)(Cc1ccc(Nc2ncc3nnn(-c4ccc5c(c4)CCC5)c3n2)cc1)OCC` [Compound 24, [4-(3-Indan-5-yl-3H-[1,2,3]triazolo[4,5-d]pyrimidin-5-ylamino)-benzyl]-phosphonic acid diethyl ester], the inhibition at 10 µM in experiment [1] was found to be 34%. Moreover, the inhibition at 20 µM in experiment [2] is 24.7%.

Turning to `CCOC(=O)Cc1ccc(Nc2ncc3nnn(-c4ccc5c(c4)CCC5)c3n2)cc1` [Compound 25, [4-(3-Indan-5-yl-3H-[1,2,3]triazolo[4,5-d]pyrimidin-5-ylamino)-phenyl]-acetic acid ethyl ester], the inhibition at 10 µM in experiment [1] (compound 10 uM, ATP 2 uM) was found to be 30%. Further, the inhibition at 20 µM in experiment [2] was determined as 21%.

`CCOC(=O)c1cccc(Nc2ncc3nnn(-c4ccc5c(c4)CCC5)c3n2)c1` [Compound 26, 3-(3-Indan-5-yl-3H-[1,2,3]triazolo[4,5-d]pyrimidin-5-ylamino)-benzoic acid ethyl ester]: the inhibition at 10 µM in experiment [1] (compound 10 uM, ATP 2 uM) came to 13%. Further, the inhibition at 20 µM in experiment [2] is 25.9%.

With `CNC(=O)c1cccc(Nc2ncc3nnn(-c4ccc5c(c4)CCC5)c3n2)c1` [Compound 27, 3-(3-Indan-5-yl-3H-[1,2,3]triazolo[4,5-d]pyrimidin-5-ylamino)-N-methyl-benzamide], in experiment [1] (compound 10 uM, ATP 2 uM), the inhibition at 10 µM turned out to be 74.4%. In experiment [2], the inhibition at 20 µM amounted to 21.4%.

Consider `CCOC(=O)/C=C/c1ccc(Nc2ncc3nnn(-c4ccc5c(c4)CCC5)c3n2)cc1` [Compound 28, 3-[4-(3-Indan-5-yl-3H-[1,2,3]triazolo[4,5-d]pyrimidin-5-ylamino)-phenyl]-acrylic acid ethyl ester], for which the inhibition at 10 µM in experiment [1] (compound 10 uM, ATP 2 uM) is 16%. Besides, the inhibition at 20 µM in experiment [2] is 54.7%.

`c1cc(-c2csnn2)ccc1Nc1ncc2nnn(-c3ccc4c(c3)CCC4)c2n1` [Compound 29, (3-Indan-5-yl-3H-[1,2,3]triazolo[4,5-d]pyrimidin-5-yl)-(4-[1,2,3]thiadiazol-4-yl-phenyl)-amine]: the inhibition at 10 µM in experiment [1] (compound 10 uM, ATP 2 uM) was 11%. The inhibition at 20 µM in experiment [2] worked out at 16.3%.

On to `CN(C)CC(O)COc1ccc(Nc2ncc3nnn(C4CCC(C(=O)O)CC4)c3n2)cc1` (centres unmarked) [Compound 30, 4-{5-[4-(3-Dimethylamino-2-hydroxy-propoxy)-phenylamino]-[1,2,3]triazolo[4,5-d]pyrimidin-3-yl}-cyclohexane-carboxylic acid], for which, in experiment [1] (compound 10 uM, ATP 2 uM), the inhibition at 10 µM turned out to be 30%. The inhibition at 20 µM in experiment [2] is 38.6%.

In the case of `CN(C)CC(O)COc1ccc(Nc2ncc3nnn(C4CCCC(C(=O)O)C4)c3n2)cc1` (centres unmarked) [Compound 31, 3-{5-[4-(3-Dimethylamino-2-hydroxy-propoxy)-phenylamino]-[1,2,3]triazolo[4,5-d]pyrimidin-3-yl}-cyclohexanecar-boxylic acid], the inhibition at 10 µM in experiment [1] (compound 10 uM, ATP 2 uM) was 21.4%. In addition, the inhibition at 20 µM in experiment [2] came to 32.9%.

On to `CCN(CC)CCOC(=O)c1ccc(Nc2ncc3nnn(-c4ccc5c(c4)CCC5)c3n2)cc1` [Compound 32, 4-(3-Indan-5-yl-3H-[1,2,3]triazolo[4,5-d]pyrimidin-5-ylamino)-benzoic acid 2-diethylamino-ethyl ester], for which, in experiment [1] (compound 10 uM, ATP 2 uM), the inhibition at 10 µM amounted to 30.2%. For the same compound, the inhibition at 20 µM in experiment [2] was found to be 42%.
